The record followed here is patent US8492398B2, “Spiroazaindoles” (Merck Sharp & Dohme Corp., priority 2008, dated 2013).

This assay concerns the target PHD2 (Homo sapiens, UniProt Q9GZT9). Briefly: Assay for HIF-PHD2 catalytic activity (time-resolved fluorescence, VHL complex detection). It is filed as biochemical. The following applies: FLAG-tagged full length PHD2; 0.2 μM 2-oxoglutarate, 0.5 μM HIF-1α peptide; read-out: PHD2 Activity (PHD2 binding activity expressed as IC50). The method, then: Assay for HIF-PHD2 Catalytic Activity
After a 30 min preincubation at room temperature, the enzymatic reactions were initiated by the addition of 4 μL of substrates (final concentrations of 0.2 μM 2-oxoglutarate and 0.5 μM HIF-1α peptide biotinyl-DLDLEMLAPYIPMDDDFQL). After 2 hr at room temperature, the reactions were terminated and signals were developed by the addition of a 25 μL quench/detection mix to a final concentration of 1 mM ortho-phenanthroline, 0.1 mM EDTA, 0.5 nM anti-(His)6 LANCE reagent (Perkin-Elmer Life Sciences), 100 nM AF647-labeled streptavidin (Invitrogen), and 2 μg/ml (His)6-VHL complex (S. Tan (2001) Protein Expr. Purif. 21, 224-234). The ratio of time resolved fluorescence signals at 665 and 620 nm was determined, and percent inhibition was calculated relative to an uninhibited control sample run in parallel.

PHD2, sequence (Q9GZT9 whole entry): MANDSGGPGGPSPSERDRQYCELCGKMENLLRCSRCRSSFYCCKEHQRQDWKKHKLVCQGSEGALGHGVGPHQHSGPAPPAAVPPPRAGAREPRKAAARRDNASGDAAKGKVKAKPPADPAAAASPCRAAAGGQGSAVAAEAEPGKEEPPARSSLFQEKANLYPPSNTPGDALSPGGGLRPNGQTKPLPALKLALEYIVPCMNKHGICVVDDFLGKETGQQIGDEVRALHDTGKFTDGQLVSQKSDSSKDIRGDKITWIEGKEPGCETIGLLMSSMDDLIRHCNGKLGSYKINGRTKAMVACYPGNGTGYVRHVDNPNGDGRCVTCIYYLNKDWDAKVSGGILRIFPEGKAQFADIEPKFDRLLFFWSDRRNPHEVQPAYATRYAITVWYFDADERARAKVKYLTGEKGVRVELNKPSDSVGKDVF

As usually defined, the IC50 is the concentration needed to halve the response being measured. In the case of `N#Cc1cnc2c(c1)C1(CCN(CC(=O)O)CC1)C(=O)N2c1ccc(-c2ccccc2)cc1` [Example 8, (1′-biphenyl-4-yl-5′-cyano-2′-oxo-1′,2′-dihydro-1H-spiro[piperidine-4,3′-pyrrolo[2,3-b]pyridin]-1-yl)acetic acid], the IC50 is 10 to 50 nM.
Regarding `Cc1cccnc1CN1CCC2(CC1)C(=O)N(c1ccc(-c3ccccc3)cc1)c1nc(C(=O)O)ccc12` [Example 6, 1′-biphenyl-4-yl-1-[(3-methylpyridin-2-yl)methyl]-2′-oxo-1′,2′-dihydrospiro[piperidine-4,3′-pyrrolo[2,3-b]pyridine]-6′-carboxylic acid], the IC50 is not above 5 nM.
In the case of `O=C(O)CN1CCC2(CC1)C(=O)N(c1ccc(-c3ccccc3)cc1)c1ncccc12` [Example 9, (1′-biphenyl-4-yl-2′-oxo-1′,2′-dihydro-1H-spiro[piperidine-4,3′-pyrrolo[2,3-b]pyridin]-1-yl)acetic acid] it was 10 to 50 nM; in that of `Cc1cccnc1CN1CCC2(CC1)C(=O)N(c1ccc(-c3ccccc3)cc1)c1ncc(C#N)cc12` [Example 4, 1′-biphenyl-4-yl-1-[(3-methylpyridin-2-yl)methyl]-2′-oxo-1′,2′-dihydrospiro[piperidine-4,3′-pyrrolo[2,3-b]pyridine]-5′-carbonitrile], 5 to 10 nM.
For the molecule `O=C(O)CN1CCC2(CC1)C(=O)N(c1ccc(-c3ccccc3)cc1)c1ncc(C(=O)O)cc12` [Example 10, 1′-biphenyl-4-yl-1-(carboxymethyl)-2′-oxo-1′,2′-dihydrospiro[piperidine-4,3′-pyrrolo[2,3-b]pyridine]-5′-carboxylic acid], the IC50 fell in the range of 5 to 10 nM.
In the case of `Cc1cccnc1CN1CCC2(CC1)C(=O)N(c1ccc(-c3ccccc3)cc1)c1nc(C#N)ccc12` [Example 3, 1′-biphenyl-4-yl-1-[(3-methylpyridin-2-yl)methyl]-2′-oxo-1′,2′-dihydrospiro[piperidine-4,3′-pyrrolo[2,3-b]pyridine]-6′-carbonitrile] it was not above 5 nM.
`Cc1cccnc1CN1CCC2(CC1)C(=O)N(c1ccc(-c3ccccc3)cc1)c1ncc(C(=O)O)cc12` [Example 5, 1′-biphenyl-4-yl-1-[(3-methylpyridin-2-yl)methyl]-2′-oxo-1′,2′-dihydrospiro[piperidine-4,3′-pyrrolo[2,3-b]pyridine]-5′-carboxylic acid]: the IC50 was not above 5 nM.
The same measure for `O=C(O)CN1CCC2(CC1)C(=O)N(c1ccc(-c3ccccc3)cc1)c1ncc(Br)cc12` [Example 7, (1′-biphenyl-4-yl-5′-bromo-2′-oxo-1′,2′-dihydro-1H-spiro[piperidine-4,3′-pyrrolo[2,3-b]pyridin]-1-yl)acetic acid]: 10 to 50 nM.
